Each block holds one molecule with its values, some of them ahead of it.
Columns and labels:
[1] = system: erytroid leukemia cell line K-562; test: Calcein AM cytotoxicity assay, K-562; type: cell-based, human; details: Homo sapiens, K562, 72 hours
Excerpt: (§1) Absence of toxic effects against mammalian (especially human) cell lines in a wide concentration range is one of the requirements on compounds intended for use in agriculture. Because toxic compounds negatively influence metabolic processes in cells, many standard cytotoxicity assays are based on measurement of metabolisation rate of various artificial substrates. Resulting product is then quantified e.g. by means of spectrometry. The assays can be easily modified for use in 96-well plates. For evaluation of cytotoxic effect of the novel substituted 6-(alkylbenzylamino)purine derivatives of this invention, a microtiter assay based on quantification of metabolisation of Calcein AM was used. The assay is widely used in drug screening programs and in chemosensitivity testing. In live cells, Calcein AM is enzymatically hydrolysed and accumulation of resulting calcein is manifested by green fluorescence.
(§2) The cells were maintained in Nunc/Corning 80 cm^2 plastic tissue culture flasks and cultured in cell culture medium (DMEM with 5 g/l glucose, 2 mM glutamine, 100 U/ml penicillin, 100 μg/ml streptomycin, 10% fetal calf serum and sodium bicarbonate).
(§3) The cell suspensions were prepared and diluted according to the particular cell type and the expected target cell density (10^4 cells per well based on cell growth characteristics) and pippetted (80 μl) into 96-well plates. Inoculates were allowed a pre-incubation period of 24 hours at 37° C., 100% humidity and 5% CO2 for stabilisation. Tested compounds were added in total volume of 20 μl of water at time zero. Usually, test compound was evaluated at six 3-fold dilutions. In routine testing, the highest concentration tested was 100 μM, the eventual changes depended on physico-chemical characteristics of the respective compound. All drug concentrations were tested in triplicates. Incubations of cells with the test compounds lasted for 72 hours at 37° C., in 5% CO2 atmosphere and 100% humidity. At the end of incubation period Calcein AM (Molecular Probes) in PBS was added into final concentration of 1 μg/ml. After another 1 hour of incubation fluorescence (FD) was measured with the Labsystem FIA Reader Fluoroscan Ascent (UK). Growth inhibition (GI) was estimated using the following equitation: GI=(mean FDdrug exposed wells−mean FDblank)/(mean FDcontrol wells−mean FDblank)×100%.

[2] = system: Human diploid fibroblasts SNF25; test: MTT viability assay on human diploid fibroblasts; type: cell-based; details: Homo sapiens, Fibroblast; SNF25 passage 19, 72 hours; read-out: IC50 (reduction in mitochondrial activity, MTT)
Procedure: MTT is a standard colorimetric assay for measurement of proliferation and survival of the cells. Yellow MTT is reduced into violet formazan in metabolically active cells. The amount of formazan is measured by spectrometry. Human diploid fibroblasts SNF25 (passage 19) were seeded in 96-well plate (5000 cells per well). After 6 hours, the cultivation medium (DMEM containing 5 g/l glucose, 2 mM glutamin, 100 U/ml penicillin, 100 μg/ml streptomycin and 10% fetal calf serum) was removed and fresh medium containing a test compound in concentration range of 0-100 μM was added. The concentration was adjusted in cases of compounds with limited solubility. Each concentration was tested in 5 replicates. MTT was added to the cells after 72 hours into final concentration of 0.5 mg/ml. Incubation time was 3 hours. Resulting MTT was disolved in DMSO and absorbance was measured. The cytotoxic effect was estimated as IC=(Awells with compounds/Acontrol wells)×100%.

[3] = system: human diploid fibroblasts BJ; test: Calcein AM cytotoxicity assay, BJ; type: cell-based; details: Homo sapiens, Fibroblast, 72 hours
Excerpt: as §1, §2, §3

melanoma cell line G-361 = test: Calcein AM cytotoxicity assay, G-361; type: cell-based, human; details: Homo sapiens, G-361, 72 hours
Excerpt: as §1, §2, §3

[4] = system: osteosarcoma cell line HOS; test: Calcein AM cytotoxicity assay, HOS; type: cell-based, human; details: Homo sapiens, 72 hours
Excerpt: as §1, §2, §3

[5] = system: breast carcinoma cell line MCF-7; test: Calcein AM cytotoxicity assay, MCF-7; type: cell-based, human; details: Homo sapiens, MCF7, 72 hours
Excerpt: as §1, §2, §3

[6] = system: cytokinin-dependent tobacco callus Nicotiana tabacum L. cv. Wisconsin 38; test: Cytokinin-dependent tobacco callus bioassay; type: cell-based; details: for activity (%) [10^−6 mol · l^−1 BA = 100%]: at concentration with highest activity, n.a. means inactive; for concentration with highest activity: callus fresh weight after four weeks
Procedure: Stimulatory effect of newly prepared derivatives was tested using cytokinin-dependent tobacco callus. The cytokinin-dependent tobacco callus Nicotiana tabacum L. cv. Wisconsin 38 was maintained at 25° C. in darkness on modified MS medium, containing per 1 liter: 4 μmol of nicotinic acid, 2.4 μmol of pyridoxine hydrochloride, 1.2 μmol of thiamine, 26.6 μmol of glycine, 1.37 μmol of glutamine, 1.8 μmol of myo-inositol, 30 g of sucrose, 8 g of agar, 5.37 μmol of NAA and 0.5 μmol of the compound tested. Subcultivation was carried out every three weeks. Fourteen days before the bioassay, the callus tissue was transferred to the media without 6-benzylaminopurine. The biological activity was determined from the increase of the fresh callus weight after four weeks of cultivation. Five replicates were prepared for each concentration of the compound tested and the entire test was repeated twice. […] The compounds to be tested were dissolved in dimethylsulfoxide (DMSO) and the solution brought up to 10^−3M with distilled water. This stock solution was further diluted with the respective media used for the biotest to a concentration ranging from 10^−8M to 10^−4M.
From the obtained data, the concentration with the highest activity was selected for each compound tested. Relative activity of the compound at this concentration was calculated (Table 3). The activity obtained for 10^−6 M of the control substance 6-benzylaminopurine was postulated as 100% biological activity. […]

CRE1/AHK4 = biological target: T1, CRE1/AHK4 (Arabidopsis thaliana, UniProt Q9C5U0); test: Activation of cytokinin receptor CRE1/AHK4 in E. coli KMI001 (β-galactosidase reporter); type: cell-based; details: for EC50 CRE1/AHK4 (activation of cytokinin receptor): E. coli KMI001 pIN-III-AHK4, 17 h incubation, n.i. means without interaction
T1 construct: expressed in transfected cells; host or cells: Escherichia coli KMI001, plasmid pIN-III-AHK4
T1 sequence (Q9C5U0 whole entry): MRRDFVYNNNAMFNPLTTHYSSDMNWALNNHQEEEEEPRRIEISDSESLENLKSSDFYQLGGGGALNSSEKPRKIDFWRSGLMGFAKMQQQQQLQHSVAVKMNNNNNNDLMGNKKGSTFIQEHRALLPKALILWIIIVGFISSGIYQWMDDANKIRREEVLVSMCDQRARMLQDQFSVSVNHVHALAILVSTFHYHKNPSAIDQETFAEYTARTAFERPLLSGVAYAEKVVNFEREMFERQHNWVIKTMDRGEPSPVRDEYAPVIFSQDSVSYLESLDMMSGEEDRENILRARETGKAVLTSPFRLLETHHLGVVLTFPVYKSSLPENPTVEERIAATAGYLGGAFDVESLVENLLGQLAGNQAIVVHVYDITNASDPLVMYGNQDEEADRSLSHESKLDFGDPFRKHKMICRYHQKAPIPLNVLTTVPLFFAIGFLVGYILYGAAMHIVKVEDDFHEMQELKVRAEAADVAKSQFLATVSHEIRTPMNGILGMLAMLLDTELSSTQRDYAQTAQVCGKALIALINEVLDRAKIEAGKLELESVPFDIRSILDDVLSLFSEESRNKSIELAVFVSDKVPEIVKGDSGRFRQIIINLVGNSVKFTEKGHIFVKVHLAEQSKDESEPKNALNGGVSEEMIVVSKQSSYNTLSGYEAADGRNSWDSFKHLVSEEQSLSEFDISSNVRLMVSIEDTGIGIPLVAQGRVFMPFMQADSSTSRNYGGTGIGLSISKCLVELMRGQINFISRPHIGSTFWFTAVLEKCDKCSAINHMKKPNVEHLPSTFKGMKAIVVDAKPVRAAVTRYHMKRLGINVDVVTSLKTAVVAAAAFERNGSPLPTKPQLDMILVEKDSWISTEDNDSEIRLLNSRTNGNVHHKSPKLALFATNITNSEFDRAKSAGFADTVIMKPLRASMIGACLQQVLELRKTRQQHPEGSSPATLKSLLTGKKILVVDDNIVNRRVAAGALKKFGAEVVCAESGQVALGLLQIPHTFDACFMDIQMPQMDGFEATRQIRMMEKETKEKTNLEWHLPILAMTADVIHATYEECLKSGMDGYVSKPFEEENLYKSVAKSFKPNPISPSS
Procedure: Escherichia coli strains KMI001 harbouring the plasmid pIN-III-AHK4 or pSTV28-AHK3 were grown overnight at 25° C. in M9 media enriched with 0.1% casamino acids to OD600˜1. The preculture was diluted 1:600 in 1 ml M9 medium containing 0.1% casamino acids and 1 μl stock solution of either the tested compound (10^−7 M−5×10^−5 M) or solvent control (DMSO, ethanol, methanol) were added. The cultures were further grown at 25° C. in microtiter plate, 200 μl per well. […] The cultures were centrifuged and 50 μl aliquots of the supernatant were transferred to microtiter plate containing 2 μl 50 mM 4-methyl umbelliferyl galactoside which was subsequently incubated for 1 h at 37° C. The reaction was stopped by adding 100 μl 0.2 M Na2CO3. Fluorescence was measured using a Fluoroscan Ascent (Labsystems, Finland) at the excitation and emission wavelengths of 365 and 460 nm, respectively. The OD600 of remaining culture was determined and β-galactosidase activity was calculated as nmol 4-methylumbelliferone×OD600^−1×h^−1.
The EC50 value, the compound concentration activating the receptor to 50%, was calculated from the obtained dose response curves. The compound functioning as cytokinin antagonists should not activate cytokinin signalling pathway. The values shown in Table 2 are means of three replicates and the entire test was repeated at least twice.

SMILES: c1ccc(CNc2ncnc3nc[nH]c23)cc1 [6-(benzylamino)purine]
GI50 [1]: > 100 µM
IC50 [2]: > 100 µM
GI50 [3]: > 100 µM
GI50 (melanoma cell line G-361): > 100 µM
GI50 [4]: > 100 µM
GI50 [5]: > 100 µM
activity (%) [10^−6 mol · l^−1 BA = 100%] [6]: 100%
concentration with highest activity [6]: 10^−6 mol.l^−1
EC50 (CRE1/AHK4): 19.7 µM

SMILES: Cc1cccc(CNc2ncnc3nc[nH]c23)c1O [Compound 8, 6-(2-hydroxy-3-methylbenzylamino)purine]
GI50 [1]: > 50 µM
IC50 [2]: > 50 µM
GI50 [3]: > 50 µM
GI50 (melanoma cell line G-361): > 50 µM
GI50 [4]: > 50 µM
GI50 [5]: > 50 µM
activity (%) [10^−6 mol · l^−1 BA = 100%] [6]: 2 (±2) %
concentration with highest activity [6]: 10^−4 mol.l^−1
EC50 CRE1/AHK4 (activation of cytokinin receptor) (CRE1/AHK4): n.i.

EC50 CRE1/AHK4 (activation of cytokinin receptor) (CRE1/AHK4): n.i.
SMILES: Cc1ccc(O)c(CNc2ncnc3nc[nH]c23)c1 [Compound 10, 6-(2-hydroxy-5-methylbenzylamino)purine]
GI50 [1]: > 100 µM
IC50 [2]: > 100 µM
GI50 [3]: > 100 µM
GI50 (melanoma cell line G-361): > 100 µM
GI50 [4]: > 100 µM
GI50 [5]: > 100 µM
activity (%) [10^−6 mol · l^−1 BA = 100%] [6]: 35 (±8) %
concentration with highest activity [6]: 10^−4 mol.l^−1
